From patent US11505527B1, “Tetrahydroquinoline derivatives and a process of preparation thereof” (King Abdulaziz University, priority 2022, dated 2022)
Read-outs that look alike come from different tables or passages of the source.

How the values were obtained:
normal WI38 cells = test: MTT assay against normal WI38 cells (safety profile); type: cell-based; settings: for IC50 against WI38 cells, fold higher than IC50 against MCF-7 cancer cells: WI38 vs MCF-7; for IC50 against WI38 cells relative to IC50 of staurosporine: vs reference drug staurosporine
Experimental: (§1) For this purpose, cells suspended in the medium (2×10^4 cells/mL) were plated in 96-well culture plates and incubated at 37° C. in a 5% CO2 incubator. After 12 h, the test sample ([…]) was added to the cells (2×10^4) in 96-well plates and cultured at 37° C. for 3 days. The cultured cells were mixed with 20 μL (microlitre) of MTT solution and incubated for 4 h at 37° C. The supernatant was carefully removed from each well and […] of DMSO were added to each well to dissolve the formazan crystals which were formed by the cellular reduction of MTT. After mixing with a mechanical plate mixer, the absorbance of each well was measured by a microplate reader using a test wavelength of 570 nm (nanometers). […] Each experiment was performed at least 3 times.
One of the features that differentiates various antiproliferative therapeutic agents from each other is the recurrence and severity of their side effects to the normal cells at their therapeutic doses. Accordingly, the safety profile of the most promising candidates (4b, 4j, 4k, and 4e) was evaluated against the normal WI38 cells derived from lung tissues using MTT assay.

[1] = test system: human breast cancer MCF-7 cell line; test: MTT cell viability assay against MCF-7 cells; type: cell-based; settings: vs standard drug staurosporine
Experimental: as §1

EGFR = EGFR (Homo sapiens (Human), UniProt P00533); test: In vitro kinase inhibition assay, EGFR (Abcam Human In cell ELISA Kit); type: biochemical
Source text: (§2) RTK's play essential roles in regulation of cell proliferation, differentiation, survival and apoptosis. Aberrant expression of RTK results in cell growth dysfunction leading to tumor takeover, angiogenesis, and metastasis. They also produce their actions in a synergistic pattern in regulating tumor response to different anticancer RTK inhibitor drug therapies. […] The procedure of the used kits was done according to the manufacturer's instructions.

PDGFR-β = PDGFR-β (Homo sapiens (Human), UniProt P09619); test: In vitro kinase inhibition assay, PDGFR-β; type: biochemical
Source text: as §2

HER-2 = HER-2 (Homo sapiens (Human), UniProt P04626); test: In vitro kinase inhibition assay, HER2 (ADP-Glo Kinase Assay); type: biochemical
Source text: as §2

VEGFR-2 = VEGFR-2 (Homo sapiens (Human), UniProt P35968); test: In vitro kinase inhibition assay, VEGFR2 (KDR) Kinase Assay Kit; type: biochemical; settings: for VEGFR-2 inhibitory effect, fold less than Sorafenib: vs Sorafenib
Source text: as §2

MCF-7 cancer cells = test: Annexin-V/PI apoptosis assay, flow cytometry; type: cell-based, human; settings: MCF-7, compound at IC50 concentration, 24 h; control 0.66%
Source text: Flow cytometry method has been used to detect the corresponding red (PI) and green (FITC) fluorescence.
The induction of apoptosis is one of the most crucial tools that confirm the effectiveness of cancer therapy. Cell cycle checkpoints are G1 (restriction or start), S ([…]), and G2/M. One of the main functions of the anticancer therapeutics is stoppage of the cell division at these checkpoints. […] The cells were stained with Annexin V/PI and examined using flow cytometry procedure. For cell cycle analysis, cell pellets were fixed with 70% ethanol on ice for 15 min. and collected again. The collected pellets were incubated with propidium iodide (PI) staining solution ([…] PI, 0.1 mg/mL RNaseA, 0.05% Triton X-100) at room temperature for 1 hand analyzed by Gallios flow cytometer (Beckman Coulter, Brea, CA, USA). Apoptosis detection was performed by FITC Annexin V/PI commercial kit (Becton Dickenson, Franklin Lakes, N.J., USA) following the manufacture protocol. The samples were analyzed by fluorescence-activated cell sorting (FACS) with a Gallios flow cytometer (Beckman Coulter, Brea, Calif., USA) within 1 h after staining Data were analyzed using Kaluzav 1.2 (Beckman Coulter).

[2] = unit mM, read-out: EGFR IC50 (converted)

HER-2, sequence (P04626 23-1255): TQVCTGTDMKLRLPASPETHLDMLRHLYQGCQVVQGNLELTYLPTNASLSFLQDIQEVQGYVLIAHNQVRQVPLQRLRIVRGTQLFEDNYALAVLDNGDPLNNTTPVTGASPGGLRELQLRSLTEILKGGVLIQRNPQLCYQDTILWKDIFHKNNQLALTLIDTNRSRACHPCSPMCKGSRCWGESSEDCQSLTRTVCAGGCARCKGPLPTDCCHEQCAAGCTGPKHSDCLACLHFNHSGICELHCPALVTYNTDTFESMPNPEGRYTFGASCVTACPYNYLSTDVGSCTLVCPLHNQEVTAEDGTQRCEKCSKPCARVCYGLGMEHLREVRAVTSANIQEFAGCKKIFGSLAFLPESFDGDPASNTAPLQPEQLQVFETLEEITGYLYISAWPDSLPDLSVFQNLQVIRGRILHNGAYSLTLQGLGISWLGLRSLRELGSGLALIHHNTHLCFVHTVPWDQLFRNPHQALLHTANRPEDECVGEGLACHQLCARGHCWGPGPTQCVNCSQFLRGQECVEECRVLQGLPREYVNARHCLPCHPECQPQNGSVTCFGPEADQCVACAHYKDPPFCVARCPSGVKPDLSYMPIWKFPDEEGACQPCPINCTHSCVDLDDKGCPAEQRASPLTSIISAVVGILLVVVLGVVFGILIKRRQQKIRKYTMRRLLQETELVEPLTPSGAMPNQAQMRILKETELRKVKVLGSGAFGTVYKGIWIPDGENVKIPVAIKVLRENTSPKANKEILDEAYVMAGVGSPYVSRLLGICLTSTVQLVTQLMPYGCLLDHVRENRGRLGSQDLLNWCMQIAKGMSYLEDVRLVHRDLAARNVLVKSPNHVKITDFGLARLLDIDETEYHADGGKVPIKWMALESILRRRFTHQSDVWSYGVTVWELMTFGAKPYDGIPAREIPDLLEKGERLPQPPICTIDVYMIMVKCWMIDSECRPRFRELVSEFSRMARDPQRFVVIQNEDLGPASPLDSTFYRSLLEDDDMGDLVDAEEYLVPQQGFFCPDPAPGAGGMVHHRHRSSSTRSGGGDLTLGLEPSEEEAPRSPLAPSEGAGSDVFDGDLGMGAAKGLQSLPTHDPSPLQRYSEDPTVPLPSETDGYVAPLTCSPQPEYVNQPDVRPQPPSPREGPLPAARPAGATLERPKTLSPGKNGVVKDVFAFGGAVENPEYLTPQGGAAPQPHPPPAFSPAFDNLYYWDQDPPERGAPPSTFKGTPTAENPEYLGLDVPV
EGFR, sequence (P00533 25-1210): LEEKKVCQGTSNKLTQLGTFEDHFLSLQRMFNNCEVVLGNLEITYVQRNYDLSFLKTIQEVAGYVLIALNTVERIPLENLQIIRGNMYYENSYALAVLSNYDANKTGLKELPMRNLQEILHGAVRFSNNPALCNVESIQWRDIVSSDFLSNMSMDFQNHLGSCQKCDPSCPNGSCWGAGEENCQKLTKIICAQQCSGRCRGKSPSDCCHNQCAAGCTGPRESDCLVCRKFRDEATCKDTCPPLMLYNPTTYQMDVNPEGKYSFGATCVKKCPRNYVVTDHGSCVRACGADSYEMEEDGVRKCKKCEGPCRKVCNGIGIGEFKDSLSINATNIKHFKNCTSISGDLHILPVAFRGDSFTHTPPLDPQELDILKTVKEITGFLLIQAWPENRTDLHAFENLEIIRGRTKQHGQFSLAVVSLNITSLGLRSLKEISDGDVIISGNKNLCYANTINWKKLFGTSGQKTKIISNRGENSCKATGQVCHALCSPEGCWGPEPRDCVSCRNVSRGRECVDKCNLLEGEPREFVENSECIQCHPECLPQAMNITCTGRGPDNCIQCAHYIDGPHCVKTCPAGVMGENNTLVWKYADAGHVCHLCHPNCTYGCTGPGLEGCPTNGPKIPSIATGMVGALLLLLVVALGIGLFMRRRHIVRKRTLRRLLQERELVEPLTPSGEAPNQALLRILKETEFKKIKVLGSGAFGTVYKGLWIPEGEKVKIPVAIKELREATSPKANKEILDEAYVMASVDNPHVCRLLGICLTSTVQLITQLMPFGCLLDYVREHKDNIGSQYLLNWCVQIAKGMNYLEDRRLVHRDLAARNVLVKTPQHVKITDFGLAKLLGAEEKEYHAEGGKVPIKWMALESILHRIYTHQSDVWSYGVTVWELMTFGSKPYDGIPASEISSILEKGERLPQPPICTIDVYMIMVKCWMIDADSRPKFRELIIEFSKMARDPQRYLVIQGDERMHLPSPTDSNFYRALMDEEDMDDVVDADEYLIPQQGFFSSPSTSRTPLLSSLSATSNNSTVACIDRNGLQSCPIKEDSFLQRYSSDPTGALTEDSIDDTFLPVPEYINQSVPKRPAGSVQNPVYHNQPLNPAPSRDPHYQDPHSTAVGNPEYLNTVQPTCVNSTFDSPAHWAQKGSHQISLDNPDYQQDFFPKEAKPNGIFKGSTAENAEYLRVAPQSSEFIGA
PDGFR-β, sequence (P09619 33-1106, species assumed): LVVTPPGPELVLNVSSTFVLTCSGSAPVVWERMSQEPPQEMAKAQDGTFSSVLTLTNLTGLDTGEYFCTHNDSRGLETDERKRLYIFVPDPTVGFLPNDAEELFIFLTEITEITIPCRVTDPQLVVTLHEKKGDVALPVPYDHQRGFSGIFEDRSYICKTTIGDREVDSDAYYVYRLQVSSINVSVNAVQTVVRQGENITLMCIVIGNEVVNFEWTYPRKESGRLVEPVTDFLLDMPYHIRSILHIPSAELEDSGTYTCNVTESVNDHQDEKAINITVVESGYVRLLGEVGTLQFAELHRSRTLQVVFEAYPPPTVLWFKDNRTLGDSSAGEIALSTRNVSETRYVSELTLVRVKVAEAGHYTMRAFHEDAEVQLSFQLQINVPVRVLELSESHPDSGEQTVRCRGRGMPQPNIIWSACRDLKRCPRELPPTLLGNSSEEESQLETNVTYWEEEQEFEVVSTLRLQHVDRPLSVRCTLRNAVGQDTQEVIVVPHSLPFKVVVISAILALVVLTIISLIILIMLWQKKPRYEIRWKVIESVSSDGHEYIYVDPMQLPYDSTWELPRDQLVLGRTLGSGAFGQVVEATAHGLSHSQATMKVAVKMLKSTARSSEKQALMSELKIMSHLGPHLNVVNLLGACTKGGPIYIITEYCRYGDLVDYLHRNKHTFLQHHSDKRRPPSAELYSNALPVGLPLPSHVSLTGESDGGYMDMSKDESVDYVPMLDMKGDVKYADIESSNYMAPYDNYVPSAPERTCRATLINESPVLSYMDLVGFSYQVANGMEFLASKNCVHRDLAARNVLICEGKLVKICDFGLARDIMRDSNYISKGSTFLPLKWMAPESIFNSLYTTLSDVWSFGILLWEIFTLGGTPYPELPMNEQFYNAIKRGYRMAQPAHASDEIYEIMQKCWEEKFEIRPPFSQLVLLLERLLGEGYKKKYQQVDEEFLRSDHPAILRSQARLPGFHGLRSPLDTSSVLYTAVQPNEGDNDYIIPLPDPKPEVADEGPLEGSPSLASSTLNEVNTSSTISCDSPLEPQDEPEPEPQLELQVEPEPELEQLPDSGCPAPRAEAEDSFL
VEGFR-2, sequence (P35968 20-1356): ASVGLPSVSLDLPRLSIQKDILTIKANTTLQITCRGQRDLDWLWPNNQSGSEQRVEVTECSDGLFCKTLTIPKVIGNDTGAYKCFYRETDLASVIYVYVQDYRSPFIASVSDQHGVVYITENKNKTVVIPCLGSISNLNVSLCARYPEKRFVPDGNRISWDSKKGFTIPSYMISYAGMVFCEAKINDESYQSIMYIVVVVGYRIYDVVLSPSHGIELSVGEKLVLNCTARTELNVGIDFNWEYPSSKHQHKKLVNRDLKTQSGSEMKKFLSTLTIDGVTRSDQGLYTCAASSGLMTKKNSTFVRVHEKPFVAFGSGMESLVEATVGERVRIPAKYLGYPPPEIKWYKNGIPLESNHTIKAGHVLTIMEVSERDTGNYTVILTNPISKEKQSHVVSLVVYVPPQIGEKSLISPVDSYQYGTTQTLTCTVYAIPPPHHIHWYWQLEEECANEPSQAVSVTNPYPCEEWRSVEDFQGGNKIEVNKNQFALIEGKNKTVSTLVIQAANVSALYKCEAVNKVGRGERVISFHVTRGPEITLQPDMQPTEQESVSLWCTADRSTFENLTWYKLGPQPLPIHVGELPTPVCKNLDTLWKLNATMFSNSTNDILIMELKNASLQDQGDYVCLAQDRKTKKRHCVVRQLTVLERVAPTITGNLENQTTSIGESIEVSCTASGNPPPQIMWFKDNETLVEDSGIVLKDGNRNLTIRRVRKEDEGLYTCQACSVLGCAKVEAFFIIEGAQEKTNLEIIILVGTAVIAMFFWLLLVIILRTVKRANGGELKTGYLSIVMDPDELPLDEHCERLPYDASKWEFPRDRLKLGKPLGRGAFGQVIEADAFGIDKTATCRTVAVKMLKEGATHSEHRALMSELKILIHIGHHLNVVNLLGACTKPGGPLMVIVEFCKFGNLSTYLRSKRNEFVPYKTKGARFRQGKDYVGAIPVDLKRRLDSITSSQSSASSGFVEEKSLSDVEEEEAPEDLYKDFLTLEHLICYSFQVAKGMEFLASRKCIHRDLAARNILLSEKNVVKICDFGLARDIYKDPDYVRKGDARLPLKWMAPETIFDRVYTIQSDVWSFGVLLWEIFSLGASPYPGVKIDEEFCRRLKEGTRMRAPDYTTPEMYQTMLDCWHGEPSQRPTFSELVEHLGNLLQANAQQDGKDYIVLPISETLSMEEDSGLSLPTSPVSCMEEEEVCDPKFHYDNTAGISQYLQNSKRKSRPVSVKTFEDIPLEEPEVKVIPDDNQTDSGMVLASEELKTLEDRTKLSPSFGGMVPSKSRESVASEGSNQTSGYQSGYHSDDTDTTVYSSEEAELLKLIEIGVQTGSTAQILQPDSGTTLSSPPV

For `CCOC(=O)C1=C(C(F)(F)F)NC2=C(C(=O)CC(C)(C)C2)C1c1ccc(S(=O)(=O)c2ccccc2)cc1` (stereo not shown) [Compound 4b, ethyl 7,7-dimethyl-5-oxo-4-(4-(phenylsulfonyl)phenyl)-2-(trifluoromethyl)-1,4,5,6,7,8-hexahydroquinoline-3-carboxylate], the “IC50 against WI38 cells, fold higher than IC50 against MCF-7 cancer cells” value (normal WI38 cells) was 24 fold, the “IC50 against WI38 cells relative to IC50 of staurosporine” value (normal WI38 cells) was “about 3 fold” and the “fold more potent activity than staurosporine (MCF-7)” value [1] was “about 2.5 fold”. The IC50 (EGFR; [2]) was 110 nM, the IC50 (PDGFR-β; Table 4) was 0.394 nM and the IC50 (HER-2; Table 4, read-out: HER-2 IC50 (converted)) was 0.562 nM. For the same compound, the IC50 (VEGFR-2; Table 4) was 1.97 nM and the “VEGFR-2 inhibitory effect, fold less than Sorafenib” value (VEGFR-2) was “about 6.2 fold”.
For `CC1(C)CC(=O)C2=C(C1)NC(N)=C(C(=O)c1ccccc1)C2c1ccc(S(=O)(=O)c2ccccc2)cc1` (stereo not shown) [Compound 4d, 2-amino-3-benzoyl-7,7-dimethyl-4-(4-(phenylsulfonyl)phenyl)-4,6,7,8-tetrahydroquinolin-5(1H)-one], the “fold less potent than the standard drug staurosporine (MCF-7)” value [1] was 1.4 fold.
For `Cc1ccc(C(=O)C2=C(N)NC3=C(C(=O)CC(C)(C)C3)C2c2ccc(S(=O)(=O)c3ccccc3)cc2)cc1` (stereo not shown) [Compound 4e, 2-amino-7,7-dimethyl-3-(4-methylbenzoyl)-4-(4-(phenylsulfonyl)phenyl)-4,6,7,8-tetrahydroquinolin-5(1H)-one], the “IC50 against WI38 cells, fold higher than IC50 against MCF-7 cancer cells” value (normal WI38 cells) was 4 fold, the “IC50 against WI38 cells relative to IC50 of staurosporine” value (normal WI38 cells) was “approximately equal” and the “fold more potent activity than staurosporine (MCF-7)” value [1] was 1-1.6 fold.
For `Cc1ccc(S(=O)(=O)c2ccc(C3C(C(=O)c4ccccc4)=C(N)NC4=C3C(=O)CC(C)(C)C4)cc2)cc1` (stereo not shown) [Compound 4j, 2-amino-3-benzoyl-7,7-dimethyl-4-(4-tosylphenyl)-4,6,7,8-tetrahydroquinolin-5(1H)-one], the “IC50 against WI38 cells, fold higher than IC50 against MCF-7 cancer cells” value (normal WI38 cells) was 20 fold, the “IC50 against WI38 cells relative to IC50 of staurosporine” value (normal WI38 cells) was “about 3 fold” and the “fold more potent activity than staurosporine (MCF-7)” value [1] was 1-1.6 fold. The IC50 (EGFR; EGFR IC50, Table 4, heading: EGFR IC50) was 70 ± 20 nM, the IC50 (EGFR; differs from Table 4, read-out: EGFR IC50 (converted)) was 77.4 nM and the IC50 (EGFR; [2]) was 70 nM. For the same compound, the necrosis percent (MCF-7 cancer cells) was 4.2%, the “PDGFR-β inhibition, fold more than reference sorafenib” value (PDGFR-β) was 0.7 fold and the IC50 (PDGFR-β; Table 4) was 0.133 nM. For the same compound, the IC50 (PDGFR-β; differs from Table 4) was 81.6 nM, the “PDGFR-a inhibition, fold more than reference sorafenib” value (PDGFR-β; text b141 prints PDGFR-a) was 1.9 fold and the IC50 (HER-2; Table 4, heading: HER-2 IC50, read-out: HER-2 IC50 (converted)) was 170 ± 20 nM. For the same compound, the IC50 (HER-2; differs from Table 4, read-out: HER-2 IC50 (converted)) was 171 nM, the IC50 (HER-2; unit mM, read-out: HER-2 IC50 as restated in text) was 170 nM and the IC50 (VEGFR-2; Table 4) was 0.57 nM. For the same compound, the IC50 (VEGFR-2; differs from Table 4) was 304 nM and the “VEGFR-2 inhibitory effect, fold less than Sorafenib” value (VEGFR-2) was roughly 1.8 fold.
`Cc1ccc(C(=O)C2=C(N)NC3=C(C(=O)CC(C)(C)C3)C2c2ccc(S(=O)(=O)c3ccc(C)cc3)cc2)cc1` (stereo not shown) [Compound 4k, 2-amino-7,7-dimethyl-3-(4-methylbenzoyl)-4-(4-tosylphenyl)-4,6,7,8-tetrahydroquinolin-5(1H)-one] was tested, and the “IC50 against WI38 cells, fold higher than IC50 against MCF-7 cancer cells” value (normal WI38 cells) was 4 fold, the “IC50 against WI38 cells relative to IC50 of staurosporine” value (normal WI38 cells) was “approximately equal” and the “fold more potent activity than staurosporine (MCF-7)” value [1] was 1-1.6 fold.
For `Cc1ccc(S(=O)(=O)c2ccc(C3C(C(=O)c4ccc(Br)cc4)=C(N)NC4=C3C(=O)CC(C)(C)C4)cc2)cc1` (stereo not shown) [Compound 4l, 2-amino-3-(4-bromobenzoyl)-7,7-dimethyl-4-(4-tosylphenyl)-4,6,7,8-tetrahydroquinolin-5(1H)-one], the “fold less potent than the standard drug staurosporine (MCF-7)” value [1] was 1.4 fold.
With `CN[C@@H]1C[C@H]2O[C@@](C)([C@@H]1OC)n1c3ccccc3c3c4c(c5c6ccccc6n2c5c31)C(=O)NC4` [Staurosporine, reference compound] the IC50 (normal WI38 cells; MTT, normal lung-derived cells) was 13 ± 2 nM.
